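How tested: cells in 96-well plates exposed to compound for 48 hours at five concentrations. TGI is the concentration that stops growth completely.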
Assays:
Assay in all cases: NCI tumour cell line growth inhibition, 48 h
[1] = system: OVCAR-4 ovarian
[2] = system: SNB-19 CNS
[3] = system: SK-OV-3 ovarian
[4] = system: A549 NSCLC
[5] = system: OVCAR-3 ovarian
[6] = system: SN12C renal
[7] = system: MDA-N
[8] = system: LOX IMVI melanoma
[9] = system: T-47D breast
[10] = system: U251 CNS

Compound	TGI [1] [µM]	TGI [2] [µM]	TGI [3] [µM]	TGI [4] [µM]	TGI [5] [µM]	TGI [6] [µM]	TGI [7] [µM]	TGI [8] [µM]	TGI [9] [µM]	TGI [10] [µM]
CCOC(=O)C(NCc1cccc(C(F)(F)F)c1)(NC(=O)c1ccccc1)C(F)(F)F (stereo not drawn)	> 100	> 100	> 100	> 100	82	> 100	> 100	48.3	80	> 100
O=C(O)C1SCCS1	> 100	> 100	> 100	> 100	> 100	> 100	> 100	> 100	> 100	> 100
Cc1ccc2nc(Cl)c(/C=N/N3C(=O)/C(=C/c4ccc(N(C)C)cc4)N=C3c3ccccc3)cc2c1	> 100	> 100	> 100	> 100	44.9	> 100	92.6	> 100	> 100	> 100
CC(C)(C)OC(=O)NCC(=O)N1CCCN(C(=O)CNC(=O)OC(C)(C)C)CC1	> 100	> 100	> 100	> 100	> 100	> 100	> 100	> 100	> 100	> 100
CCC(C)C1(O)OC2CC3(C)OC(=CC3=O)/C(C)=C\C3OC(=O)C1(C)C32 (stereo not drawn)	> 100	77.5	> 100	> 100	42.6	28.6	21	49.4	33.7	> 100
C/C(N=Nc1nc2ccccc2o1)=C1/C=CC=CN1O	> 100	> 100	> 100	> 100	7.69	> 100	> 100	> 100	> 100	> 100
Cc1nnc2sc(N/N=C/c3ccccc3)nn12	> 100	> 100	88.1	> 100	> 100	> 100	> 100	> 100	> 100	> 100
N#Cc1nc(/C=C/c2ccccc2)oc1N	> 100	> 100	> 100	> 100	> 100	> 100	> 100	> 100	> 100	> 100
CC1CCC2(CC1)N=C1CCC(C)CC1C1(CCC(C)CC1)N2 (stereo not drawn)	> 100	> 100	> 100	> 100	> 100		> 100	> 100	> 100	> 100
CC(C)(NC1=NCCO1)c1ccccc1	> 100	> 100	> 100	> 100	> 100	> 100	> 100	> 100	> 100	> 100
OCC(O)C(O)C(O)C(/C=N\Nc1ncnc2ccc(Br)cc12)=N/Nc1ncnc2ccc(Br)cc12 (stereo not drawn)	> 100	> 100	> 100	> 100	> 100	> 100	> 100	> 100	> 100	> 100
Cc1n(CC(=O)c2ccccc2)nc2sc(N)n[n+]12	> 100	> 100	74.7	> 100	> 100	> 100	> 100	> 100	> 100	> 100
O=C1C(N=Nc2ccc(-c3nc4ccccc4[nH]3)cc2)NC(=S)N1c1ccccc1 (stereo not drawn)	> 100	> 100	> 100	> 100	> 100	> 100	> 100	39.4	62.8	> 100
CC(C)(C)c1cc(C2COC(=O)COCC(=O)OCCOCCOCCO2)cc(C(C)(C)C)c1O (stereo not drawn)	> 100	> 100	55.9	> 31.6	> 100	20.8	38.5	> 80.2	> 100	> 100
CCOC(=O)C(=Cn1c(=S)[nH]c2ccc([N+](=O)[O-])cc21)C(=O)OCC	> 100	> 100	> 100	> 100	> 100	> 100	> 100	> 100	> 100	> 100
COc1ccc(/C=N/n2c(Cc3ccc(Cl)cc3)n[nH]c2=O)c(OC)c1	41.6	48.4	> 100	> 100	> 100		> 100	> 100	> 100	> 100
COc1cc2c(cc1Cl)n([O-])c(C#N)c(N1CCN(c3ccc([N+](=O)[O-])cc3)CC1)[n+]2=O	> 100	> 100	> 100	> 100	> 100	> 100	> 100	73.6	> 81.5	> 100

From PubChem BioAssay (NCI)
